Laboratory results from ChEMBL document CHEMBL1201862, “PubChem BioAssay data set” (2004).
Calls of active or inactive are those of the source.

Columns and labels:
[1] = target: 72 kDa type IV collagenase (Homo sapiens, UniProt P08253); experiment: Dose Response validation of uHTS RPN11 inhibitor hits using a MMP-2 Fluorescence assay.; assay type: functional
Prothrombin = Prothrombin (Bos taurus, UniProt P00735); experiment: thrombin protease inhibitors – biochemical, fluorescence polarization, uHTS hits, dose response (AID 602369); assay type: functional
[2] = target: 26S proteasome non-ATPase regulatory subunit 14 (Homo sapiens, UniProt O00487); experiment: inhibition of proteasome subunit RPN11 – biochemical, fluorescence polarization, uHTS hits, confirmation (AID 602368); assay type: functional
Albumin = Albumin (Bos taurus, UniProt P02769); experiment: Counterscreen for inhibitors of T-cell receptor (TCR)-CD3 interaction: Fluorescence-based biochemical high throughput dose response assay to identify inhibitors of T-cell receptor (TCR)-CD3 interaction using a TAMRA-labeled BSA probe.; assay type: functional
[3] = target: T1, RNA-binding protein pos-1 (Caenorhabditis elegans, UniProt G5EF15); experiment: disruptors of C. elegans POS-1 RNA interaction – biochemical, fluorescence polarization, dose response (AID 1964);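 also: purified POS-1 fused to maltose binding protein made in E. coli; potency of compounds blocking POS-1 binding to fluorescent RNA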
T1 sequence (G5EF15 whole entry): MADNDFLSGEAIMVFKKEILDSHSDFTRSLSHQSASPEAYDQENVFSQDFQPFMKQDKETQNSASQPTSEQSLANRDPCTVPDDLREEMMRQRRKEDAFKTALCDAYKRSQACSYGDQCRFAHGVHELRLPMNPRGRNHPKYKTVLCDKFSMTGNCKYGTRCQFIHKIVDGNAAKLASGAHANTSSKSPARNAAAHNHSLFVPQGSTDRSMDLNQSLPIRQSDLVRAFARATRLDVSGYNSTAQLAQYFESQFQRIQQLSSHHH

cells [4] = assay type: functional, cell-based
cells [5] = assay type: functional, cell-based; remark: listed apart in the source
[6] = target: T2, Trace amine-associated receptor 1 (Homo sapiens, UniProt Q96RJ0); experiment: Counterscreen for agonists of the human trace amine associated receptor 1 (hTAAR1): Fluorescence-based cell-based high throughput dose response assay to identify hTAAR1 agonist that also desensitize TAAR1 receptor response.; assay type: functional
T2 sequence (Q96RJ0 whole entry): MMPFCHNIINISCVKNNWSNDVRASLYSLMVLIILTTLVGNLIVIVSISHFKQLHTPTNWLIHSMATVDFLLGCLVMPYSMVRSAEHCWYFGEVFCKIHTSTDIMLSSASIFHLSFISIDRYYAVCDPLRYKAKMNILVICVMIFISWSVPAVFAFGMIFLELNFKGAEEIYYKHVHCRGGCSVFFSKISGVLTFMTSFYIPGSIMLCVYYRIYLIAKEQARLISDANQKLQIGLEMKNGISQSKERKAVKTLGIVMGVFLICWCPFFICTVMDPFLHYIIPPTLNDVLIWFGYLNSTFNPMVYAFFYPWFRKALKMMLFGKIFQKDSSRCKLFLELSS

[7] = target: T2, Trace amine-associated receptor 1; experiment: Fluorescence-based cell-based high throughput dose response assay to identify agonists of the human trace amine associated receptor 1 (TAAR1).; assay type: functional
[8] = target: Fructose-bisphosphate aldolase (Mycobacterium tuberculosis, UniProt P9WQA3); experiment: Fluorescence-based biochemical high throughput dose response assay for inhibitors of the fructose-bisphosphate aldolase (FBA) of M. tuberculosis.; assay type: functional
[9] = Counterscreen for […] of the human trace amine associated receptor 1 (TAAR1): Fluorescence-based cell-based high throughput dose response assay to identify nonselective Ga16 agonists.; assay type: functional
[10] = Counterscreen for antagonists of the human trace amine associated receptor 1 (hTAAR1): Fluorescence-based cell-based high throughput dose response assay to identify nonselective Ga16 antagonists.; assay type: functional
[11] = liver cell line viability loss – HepG2, luminescence plate reader, powder samples, set 2, cytotoxicity control, dose response (AID 651860); assay type: functional, cell-based
[12] = viability of PTEN-deleted HCT116 cells – cell-based, HCT116 PTEN knockout, dose response (AID 1047); assay type: functional;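 also: HCT116 colon tumor cells with PTEN knocked out; cells exposed to compound for 60 hours before readout; potency for loss of cell viability measured by luminescence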
[13] = viability loss in HEK293T cells – cell-based, cherry-picks, cytotoxicity control for HIV Vif inhibitor project, dose response (AID 652208); assay type: functional
[14] = target: T3, Ubiquitin-conjugating enzyme E2 N (Homo sapiens, UniProt P61088); assay type: functional;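 also: Dose-response confirmation in a TR-FRET assay detecting UBC13-driven polyubiquitin chain formation, inhibition measured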
T3 sequence (P61088 whole entry): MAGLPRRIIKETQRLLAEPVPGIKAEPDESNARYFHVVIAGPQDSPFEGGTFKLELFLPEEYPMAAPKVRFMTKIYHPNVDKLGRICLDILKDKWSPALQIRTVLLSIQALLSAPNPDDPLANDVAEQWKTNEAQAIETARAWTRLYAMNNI

[15] = viability of HCT116 lacking mutant beta-catenin – cell-based, human colon tumor, dose response (AID 1045); assay type: functional;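 also: HCT116 colon tumor cells with beta catenin knocked out; cells exposed to compound for 60 hours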
[16] = general mammalian cell viability loss – inhibitor set, cherry-pick, set 2, cytotoxicity control for miR-122 modulator project, dose response (AID 720697); assay type: functional, cell-based
[17] = activation of miR-122 Renilla sensor silencing – cell-based, Huh7 psiCHECK-miR122, Renilla luciferase, cherry-picked, dose response (AID 651956); assay type: functional;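 also: huh7 hepatoma cells stably carrying a psiCHECK-2 miR-122 sensor plasmid; renilla luciferase signal reporting endogenous miR-122 activity after 48 h compound exposure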
[18] = general mammalian cell viability loss – activator set, cherry-pick, cytotoxicity control for miR-122 modulator project, dose response (AID 720690); assay type: functional, cell-based;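 also: HEK293T human cells scored for general mammalian cytotoxicity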
[19] = CMV-driven luciferase expression suppression in HEK293 – cell-based, luminescence, dry powder, counter-screen for Pax8 inhibitor project, dose response (AID 743020); assay type: functional
[20] = OVCAR8 cell viability loss – plate reader, dry powder samples, PAX8 project, dose response (AID 743197); assay type: functional, cell-based; conditions: OVCAR-8
[21] = A2780 cell killing – plate reader, dry powder samples, cytotoxicity control, dose response (AID 743046); assay type: functional, cell-based
Paired box protein Pax-8 = Paired box protein Pax-8 (Homo sapiens, UniProt Q06710); experiment: PAX8 transcriptional activity inhibition in RMG-I – RMG-I cells, luciferase, cherry-pick, dose response (AID 687027); assay type: functional, cell-based;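 also: luciferase reporter driven by Pax8 target thyroperoxidase promoter measured by SteadyGlo luminescence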
[22] = IGROV1 cell killing – plate reader, dry powder samples, PAX8 inhibitor project, dose response (AID 743043); assay type: functional, cell-based; conditions: IGROV-1
[23] = OVCAR-3 cell viability loss – plate reader, dry powder samples, PAX8 inhibitor project, dose response (AID 743044); assay type: functional, cell-based
[24] = P. falciparum Dd2 growth inhibitors, dose response, SYBR Green, cherry-picked samples (AID 1159567); assay type: functional, cell-based
[25] = growth inhibition of yeast DHODH-expressing 3D7 parasites – SYBR Green, dry powder samples, dose response (AID 1159570); assay type: functional, cell-based;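 also: parasite growth measured after 72 hours of compound exposure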
[26] = toxicity to human HepG2 hepatoma cells – cell-based, plate reader, dry powder samples, cytotoxicity control, dose response (AID 1159569); assay type: functional;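 also: inhibitor potency with signal falling toward the positive control level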
[27] = toxicity toward HepG2 liver cells – cell-based, plate reader, cherry-pick, antagonist series, cytotoxicity control, dose response (AID 743416); assay type: functional
[28] = A549 cell cytotoxicity, dose response, cytotoxicity control, plate reader, cherry-pick, antagonist series (AID 743412); assay type: functional, cell-based
[29] = growth inhibition of PfATP4-mutant resistant parasites – NITD609-resistant line, SYBR Green, dry powder, dose response (AID 1159571); assay type: functional, cell-based;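 also: parasites synchronized at ring stage by sorbitol before testing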
[30] = blockade of melanocortin 4 receptor signaling – cell-based, plate reader, cherry pick, counter-screen for LGR2 antagonist project, dose response (AID 743444); assay type: functional;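 also: transfected HEK 293 cells stimulated with alpha-MSH peptide; potency of inhibitors of the alpha-MSH evoked signal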
[31] = viability loss in HEK293 cells – cell-based, plate reader, cherry-picked samples, cytotoxicity control, dose response (AID 743446); assay type: functional
[32] = toxicity toward immortalized ovarian surface epithelium – cell-based, plate reader, dry powder samples, cytotoxicity control for PAX8 inhibitor project, dose response (AID 743045); assay type: functional
[33] = Dd2 malaria parasite growth inhibition potency – SYBR Green, dry powder samples, dose response (AID 1159566); assay type: functional, cell-based;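 also: potency for growth inhibition with lower SYBR green DNA signal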
[34] = blockers of bursicon-stimulated LGR2 cAMP reporter – cell-based, HEK293, CRE-luciferase reporter, cherry pick, set 2, dose response (AID 743343); assay type: functional;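 also: transfected cells were stimulated with diluted bursicon conditioned medium after compound addition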
[35] = EF1alpha-driven Renilla reporter with control 3'UTR suppression – Clone20-Shn3RL cells, dual-Glo, cherry-pick, set 2, counter-screen for Shn3 3'UTR targeting project, dose response (AID 720724); assay type: functional, cell-based; conditions: Dual-Go Shn3RL
[36] = Shn3 3'UTR reporter signal decrease – cell-based, Clone20 osteoblasts, firefly luciferase, cherry-pick, set 2, Schnurri-3 inhibitor project, dose response (AID 720490); assay type: functional;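 also: actives lower the luminescence signal as inhibitors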
[37] = Shn3 transcript knock-down in Clone20 cells – cell-based, qPCR, cherry-pick, dose response (AID 743415); assay type: functional
[38] = non-specific 3'UTR reporter inhibition in Clone20-Shn3RL – cell-based, Renilla luciferase, cherry-picked, counter-screen for Shn3 inhibitor project, dose response (AID 624133); assay type: functional
[39] = reduction of Shn3 3'UTR-driven luciferase in osteoblasts – cell-based, Clone20 osteoblasts, firefly luciferase, cherry-picked, dose response (AID 624132); assay type: functional;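 also: firefly luciferase luminescence from reporter carrying the Shn3 3'UTR in osteoblasts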
[40] = loss of viability in HepG2 cells – cell-based, CellTiter-Glo, cherry-picked, cytotoxicity control for Shn3 inhibitor project, dose response (AID 624134); assay type: functional
cells [41] = assay type: functional, cell-based; conditions: HEK-CNG
Galanin receptor type 3 = Galanin receptor type 3 (Homo sapiens, UniProt O60755); experiment: Fluorescence-based cell-based primary high throughput dose response assay to identify antagonists of the Galanin Receptor 3 (GalR3).; assay type: functional
Chain of Galanin receptor type 3 (O60755 whole entry): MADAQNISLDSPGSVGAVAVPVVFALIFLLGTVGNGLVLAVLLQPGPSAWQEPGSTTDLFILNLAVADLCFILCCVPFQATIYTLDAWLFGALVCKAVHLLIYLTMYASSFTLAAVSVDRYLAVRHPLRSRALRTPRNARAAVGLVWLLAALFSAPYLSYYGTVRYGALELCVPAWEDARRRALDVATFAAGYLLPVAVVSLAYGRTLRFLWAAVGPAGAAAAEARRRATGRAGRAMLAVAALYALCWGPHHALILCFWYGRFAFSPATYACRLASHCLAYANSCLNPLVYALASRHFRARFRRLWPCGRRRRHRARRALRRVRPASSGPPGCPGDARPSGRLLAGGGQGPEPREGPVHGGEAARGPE

Chain of Paired box protein Pax-8 (Q06710 whole entry): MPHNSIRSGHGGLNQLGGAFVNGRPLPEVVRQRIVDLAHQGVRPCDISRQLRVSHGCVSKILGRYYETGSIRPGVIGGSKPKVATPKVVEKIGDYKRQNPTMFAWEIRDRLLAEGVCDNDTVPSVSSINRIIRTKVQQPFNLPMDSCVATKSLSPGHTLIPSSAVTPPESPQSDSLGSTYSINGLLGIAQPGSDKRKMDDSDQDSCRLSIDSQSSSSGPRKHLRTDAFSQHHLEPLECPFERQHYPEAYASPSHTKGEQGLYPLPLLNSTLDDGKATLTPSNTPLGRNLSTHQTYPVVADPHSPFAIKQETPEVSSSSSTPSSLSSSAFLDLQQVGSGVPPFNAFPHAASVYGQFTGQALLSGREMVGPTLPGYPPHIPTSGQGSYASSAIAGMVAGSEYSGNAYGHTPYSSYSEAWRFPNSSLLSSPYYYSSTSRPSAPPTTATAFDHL
Chain of Albumin (P02769 whole entry, the tested form may be a part): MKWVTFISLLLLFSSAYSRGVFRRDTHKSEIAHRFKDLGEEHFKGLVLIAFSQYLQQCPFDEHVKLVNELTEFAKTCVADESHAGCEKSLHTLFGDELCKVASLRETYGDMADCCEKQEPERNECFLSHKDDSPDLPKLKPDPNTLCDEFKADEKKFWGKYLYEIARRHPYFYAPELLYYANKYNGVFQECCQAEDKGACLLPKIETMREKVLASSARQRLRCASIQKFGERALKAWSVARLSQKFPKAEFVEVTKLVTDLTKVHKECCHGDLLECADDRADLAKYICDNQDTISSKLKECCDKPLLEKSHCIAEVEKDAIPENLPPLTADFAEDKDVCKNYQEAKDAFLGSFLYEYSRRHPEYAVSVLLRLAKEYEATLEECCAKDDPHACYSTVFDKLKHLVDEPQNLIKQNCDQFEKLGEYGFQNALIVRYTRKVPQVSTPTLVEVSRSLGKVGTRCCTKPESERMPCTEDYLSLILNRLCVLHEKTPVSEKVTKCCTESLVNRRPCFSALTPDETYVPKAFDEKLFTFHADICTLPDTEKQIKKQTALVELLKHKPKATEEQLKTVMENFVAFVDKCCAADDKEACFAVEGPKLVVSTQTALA
Chain of Fructose-bisphosphate aldolase (P9WQA3 whole entry): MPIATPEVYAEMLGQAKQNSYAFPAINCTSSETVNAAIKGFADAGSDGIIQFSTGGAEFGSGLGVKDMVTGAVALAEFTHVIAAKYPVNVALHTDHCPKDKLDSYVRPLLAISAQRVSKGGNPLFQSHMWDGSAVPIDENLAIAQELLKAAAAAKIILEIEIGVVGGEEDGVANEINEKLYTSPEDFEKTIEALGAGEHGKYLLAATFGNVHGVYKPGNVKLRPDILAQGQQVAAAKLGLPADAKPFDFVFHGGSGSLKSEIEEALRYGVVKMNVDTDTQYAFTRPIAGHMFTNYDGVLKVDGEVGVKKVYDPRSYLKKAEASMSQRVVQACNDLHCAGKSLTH
Chain of 72 kDa type IV collagenase (P08253 whole entry): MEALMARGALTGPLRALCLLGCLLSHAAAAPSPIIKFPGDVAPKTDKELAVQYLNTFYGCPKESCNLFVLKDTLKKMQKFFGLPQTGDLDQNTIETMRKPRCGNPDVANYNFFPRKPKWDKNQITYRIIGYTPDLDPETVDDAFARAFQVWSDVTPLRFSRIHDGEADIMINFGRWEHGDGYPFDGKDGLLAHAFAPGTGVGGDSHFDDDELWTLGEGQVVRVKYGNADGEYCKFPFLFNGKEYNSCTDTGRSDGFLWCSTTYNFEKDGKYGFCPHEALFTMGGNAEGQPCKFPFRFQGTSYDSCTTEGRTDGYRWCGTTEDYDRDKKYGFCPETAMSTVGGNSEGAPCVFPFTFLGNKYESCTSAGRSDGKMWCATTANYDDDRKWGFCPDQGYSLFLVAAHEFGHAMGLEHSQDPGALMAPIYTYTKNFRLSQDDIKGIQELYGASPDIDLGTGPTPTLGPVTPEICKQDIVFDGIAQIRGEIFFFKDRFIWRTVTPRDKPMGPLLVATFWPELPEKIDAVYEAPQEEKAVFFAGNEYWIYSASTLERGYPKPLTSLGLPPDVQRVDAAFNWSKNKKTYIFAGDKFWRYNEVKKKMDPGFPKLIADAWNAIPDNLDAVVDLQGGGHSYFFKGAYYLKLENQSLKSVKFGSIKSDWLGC
Chain of 26S proteasome non-ATPase regulatory subunit 14 (O00487 whole entry): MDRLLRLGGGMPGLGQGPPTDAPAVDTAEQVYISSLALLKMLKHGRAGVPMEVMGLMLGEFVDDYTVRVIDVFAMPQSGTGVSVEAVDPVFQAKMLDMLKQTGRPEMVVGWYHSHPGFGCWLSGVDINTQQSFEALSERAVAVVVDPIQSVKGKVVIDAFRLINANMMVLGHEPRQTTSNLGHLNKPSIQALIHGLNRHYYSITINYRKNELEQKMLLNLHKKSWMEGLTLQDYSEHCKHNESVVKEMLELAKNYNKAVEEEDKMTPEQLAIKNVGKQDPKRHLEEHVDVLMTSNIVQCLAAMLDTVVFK

In the case of `O=C1NC(=O)N(CCc2ccccc2)C(=O)/C1=C/NNC(=O)c1ccccc1O`, the IC50 [1] is reported as > 100 µM (inactive), the IC50 (Prothrombin) is reported as 47.2 µM (active) and the IC50 [2] is reported as 63.5 µM (active). For the same molecule, the IC50 (Albumin) was > 94 µM (inactive) and the EC50 [3] was 69.9 µM (active).

In the case of `O=C(Nc1cccc2ccccc12)N1CCc2ccccc2C1`, the IC50 (cells [4]) is reported as > 29.9 µM (inactive), the EC50 (cells [5]) is reported as > 29.9 µM (inactive) and the IC50 [6] is reported as 9.86 µM (active). For the same molecule, the EC50 [7] was 0.266 µM (active) and the IC50 [8] was > 9.99 µM (inactive).

In the case of `CCCCC(=O)Nc1ccc(C(=O)Nc2ccc(S(=O)(=O)N3CCCC3)cc2)cc1`, the EC50 [9] is reported as > 29.9 µM (inactive) and the IC50 [10] is reported as > 29.9 µM (inactive).

With `O=C(O)C1CCCCC1C(=O)N1CCc2ccccc2C1CN1C(=O)Cc2ccccc2C1=O` (stereo not drawn) the AC50 [11] was > 52 µM (inactive).

In the case of `COc1cc2c3nnc(-c4ccc(F)cc4)c-3cn(Cc3ccc(F)cc3)c2cc1OC`, the EC50 [12] is reported as 6.2 µM (active), the AC50 [13] is reported as 26.3 µM (active) and the IC50 [14] is reported as > 20 µM (inactive). The EC50 [15] was 7.33 µM (active).

In the case of `C[C@@H]1CN([C@@H](C)CO)S(=O)(=O)c2ccc(C#Cc3ccccc3F)cc2O[C@@H]1CN(C)C(=O)Cc1ccncc1`, the AC50 [16] is reported as 5.41 µM (active), the AC50 [17] is reported as 6.5 µM (active) and the AC50 [18] is reported as 45 µM (active).

With `CN1c2ccc(-c3cccc(C#N)c3)cc2[C@H]2[C@H](CCN2S(=O)(=O)c2ccccc2F)[C@H]1CO` the AC50 [19] was 28.2 µM (active), the AC50 [20] was 23.4 µM (active) and the AC50 [21] was 38.1 µM (active). For the same molecule, the AC50 (Paired box protein Pax-8) was 4.87 µM (active), the AC50 [22] was 33.3 µM (active) and the AC50 [23] was 16.6 µM (active). For the same molecule, the AC50 [24] was 3.57 µM (active).

For `N#Cc1ccc(-c2ccc([C@@H]3[C@@H]4CN(C(=O)C5CC5)C[C@H]3N4)cc2)cc1`, the AC50 [25] was 0.328 µM (active), the AC50 [26] was 1.41 µM (active) and the AC50 [20] was 19.9 µM (active). For the same molecule, the AC50 [21] was 7.18 µM (active), the AC50 (Paired box protein Pax-8) was 1.16 µM (active) and the AC50 [22] was 4.73 µM (active). The AC50 [27] was 1.97 µM (active), the AC50 [28] was 0.821 µM (active) and the AC50 [29] was 0.449 µM (active). The AC50 [30] was 0.684 µM (active), the AC50 [23] was 7.05 µM (active) and the AC50 [31] was 1.7 µM (active). For the same molecule, the AC50 [32] was 40.5 µM (active), the AC50 [33] was 0.376 µM (active) and the AC50 [24] was < 0.3 µM (active). The AC50 [34] was 1.22 µM (active).

For `COc1cc(CN2CCc3ccccc3C2)ccc1O`, the IC50 (cells [4]) was > 29.9 µM (inactive), the EC50 (cells [5]) was > 29.9 µM (inactive) and the AC50 [35] was 2.93 µM (active). For the same molecule, the AC50 [36] was 2.65 µM (active), the AC50 [37] was 3.71 µM (active) and the AC50 [38] was 5.64 µM (active). For the same molecule, the AC50 [39] was 0.912 µM (active) and the AC50 [40] was 24.9 µM (active).

In the case of `COc1cccc(CN(C)C(=O)CNC(=O)c2ccc(-c3ccccc3)cc2)c1OC`, the EC50 (cells [41]) is reported as > 29.9 µM (inactive) and the IC50 (Galanin receptor type 3) is reported as > 1.11 µM (active).
